Series [1] relates to TKO-005 PDX of platinum sensitive SCLC. As to the kind of experiment: Patient derived xenograft (PDX) model of platinum sensitive SCLC (TKO-005). It is filed as in vivo. The source says:
PDX models generated from SCLC patients enrolled in a recently completed translational phase II clinical trial of arsenic trioxide were employed. […] The activity of rigosertib was compared to that of cisplatin (expected to be active in a PDX from a platinum sensitive tumor) and arsenic trioxide (expected to have no efficacy based on the clinical trial outcome for the patient whose tumor biopsy was used to generate the PDX).
On the technique in general: Xenograft models place foreign cells or tissue in a host animal.

The subject of series [2] is panel of SCLC cell lines (DMS53, DMS114, DMS153, H146, H209, H69, H128, H187, H526).
Procedure: (§2) An agnostic screening approach was employed by evaluating in vitro cytotoxicity of biologically targeted agents that have not been previously evaluated in SCLC clinical trials. […] The cytotoxicity of 10 different targeted agents was determined in a panel of genomically annotated SCLC cell lines by low throughput MTS assay. Inhibitors of the bromodomain, HSP90, CDK2, MEK, PIK3CA and PLK1 were tested in a panel of SCLC cell lines (DMS53, DMS114, DMS153, H146, H209, H69, H128, H187, H526) well characterized for genetic alterations and expression profiles.
The subject of a further series is DMS53 SCLC cell line. As to the kind of experiment: In vitro cytotoxicity, low throughput MTS assay, DMS53. The series is classed as cell-based. The settings on record: Homo sapiens, DMS-53, TP53 c.722C > T, read-out: IC50 (nM), cell line sensitivity to volasertib. A general note: Tetrazolium dyes change colour on reduction, which living cells bring about.
For another series, the system named is DMS153 SCLC cell line. As to the kind of experiment: In vitro cytotoxicity, low throughput MTS assay, DMS153. The series is classed as cell-based. The note with it: Homo sapiens, DMS-153, TP53 c.463A > C, read-out: IC50 (nM), cell line sensitivity to volasertib.
For the next series, the system named is H146 SCLC cell line. In words: In vitro cytotoxicity, low throughput MTS assay, H146. The series is classed as cell-based. The settings on record: Homo sapiens, NCI-H146, TP53 wild type, read-out: IC50 (nM), cell line sensitivity to volasertib.
The next series has as its system H209 SCLC cell line. In words: In vitro cytotoxicity, low throughput MTS assay, H209. It is filed as cell-based. The settings on record: Homo sapiens, NCI-H209, TP53 c.673-2A > T, read-out: IC50 (nM), cell line sensitivity to volasertib.
The next series deals with H69 SCLC cell line. As to the kind of experiment: In vitro cytotoxicity, low throughput MTS assay, H69. It is filed as cell-based. The note with it: TP53 c.511G > T, concurrent hemizygous deletion, read-out: IC50 (nM), cell line sensitivity to volasertib.
Another series concerns H187 SCLC cell line. In words: In vitro cytotoxicity, low throughput MTS assay, H187. It is filed as cell-based.
The test system of the next series is DMS114 SCLC cell line. As to the kind of experiment: In vitro cytotoxicity, low throughput MTS assay, DMS114. It is filed as cell-based. The settings on record: Homo sapiens, DMS-114, TP53 c.637C > T, concurrent hemizygous deletion, read-out: IC50 (nM), cell line sensitivity to volasertib.
Series [3] concerns H526 SCLC cell line xenograft. In words: Subcutaneous xenograft model of H526 SCLC cell line. The note with it: volasertib 30 mg/kg i.p. weekly; p<0.003. The series is classed as in vivo, athymic (nu/nu) mice. As for the experimental part:
To establish whether the promising in vitro activity of these PLK1 inhibitors translates into antitumor efficacy in vivo. The activity of PLK1 inhibitors were compared to that of approved drugs currently employed in the management of SCLC. The in vivo efficacy of volasertib (30 mg/kg i.p. weekly), cisplatin (3 mg/kg i.p. weekly) and irinotecan (25 mg/kg i.p. weekly) was tested, using a subcutaneous xenograft model of the H526 cell line, the most sensitive cell line from our in vitro screen (FIG. 2). Tumor xenografts were established in 6-week old athymic (nu/nu) mice using H526 cells (1-2×10^7) suspended in serum-free medium mixed with Matrigel™ solution and injected subcutaneously into the flank region of nude mice. Treatment began in groups of tumor-bearing mice (approximately 6 mice per group) matched for body weight and tumor volume when the tumors achieved a volume of approximately 100 mm^3.

The test system of the next series is H292 NSCLC cell line. As to the kind of experiment: In vitro cytotoxicity before and after shRNA knockdown of TP53 in H292. The series is classed as cell-based. The note with it: compared to parental and vector-treated controls. On the procedure:
(§1) Whether depletion of endogenous wild type P53 and enforced expression of active P53 mutant would alter cancer cell line sensitivity to PLK1 inhibitor was evaluated. Due to low transfection efficiency in SCLC cell lines, established NSCLC cell line models were relied on to interrogate PLK1 activity following TP53 gene modulation. In vitro cytotoxicity of PLK1 inhibitors were compared before and after shRNA knockdown of TP53 in H292 and A549. In these cell lines with wild type TP53, there was increased sensitivity to PLK1 inhibitors following shRNA knockdown in comparison to parent cells and vector treated controls (FIG. 4). We also evaluated PLK1 inhibitor activity in p53−/− H1299 cells following enforced expression of active mutant forms of TP53. There was reduced sensitivity of the mutant-bearing cell lines compared to parental p53−/− cells (FIG. 5).

In a further series the test system is A549 NSCLC cell line. In words: In vitro cytotoxicity before and after shRNA knockdown of TP53 in A549. It is filed as cell-based. The settings on record: compared to parental and vector-treated controls. As for the experimental part:
as §1

For series [4], the system named is panel of SCLC cell lines (DMS53, DMS114, DMS153, H146, H209, H69, H128, H187, H526). As to the kind of experiment: Agnostic cytotoxicity screening of targeted agents in panel of SCLC cell lines (MTS assay). The settings on record: for IC50 concentration / activity against SCLC cell lines (in words) / In vitro activity versus a priori threshold (submicromolar in vitro cytotoxicity): panel of SCLC cell lines; for In vitro activity versus a priori threshold (submicromolar in vitro cytotoxicity): MTS assay.
Procedure: as §2

Structures are written as SMILES. Entries after “also recorded” stand apart in the source; their conditions may differ. Where two headings read alike, the source gives them in different places.

Procedure for DMS114 SCLC cell line: (§3) The cytotoxicity of 10 different targeted agents was determined in a panel of genomically annotated SCLC cell lines by low throughput MTS assay. Inhibitors of the bromodomain, HSP90, CDK2, MEK, PIK3CA and PLK1 were tested in a panel of SCLC cell lines (DMS53, DMS114, DMS153, H146, H209, H69, H128, H187, H526) well characterized for genetic alterations and expression profiles.
Procedure for DMS153 SCLC cell line: as §2
Procedure for DMS53 SCLC cell line: as §2
Procedure for H146 SCLC cell line: as §2
Procedure for H187 SCLC cell line: as §2
Procedure for H209 SCLC cell line: as §3
Procedure for H69 SCLC cell line: as §3

As to `N.N.[Cl][Pt][Cl]` [cisplatin], the “Tumor growth inhibition compared to vehicle” value in series [1] is given as “comparable efficacy”.
As to `CCNC(=O)c1noc(-c2cc(C(C)C)c(O)cc2O)c1-c1ccc(CN2CCOCC2)cc1` [AUY922], in series [2], the “In vitro activity versus a priori threshold (submicromolar in vitro cytotoxicity)” value was “met the a priori threshold of activity”.
Same read-out and setting: under `CCc1cnn2c(NCc3ccc[n+]([O-])c3)cc(N3CCCC[C@H]3CCO)nc12` [SCH727965] stands “met the a priori threshold of activity”.
Regarding `CC[C@@H]1C(=O)N(C)c2cnc(Nc3ccc(C(=O)N[C@H]4CC[C@H](N5CCN(CC6CC6)CC5)CC4)cc3OC)nc2N1C(C)C` [volasertib], the IC50 in the series on DMS53 SCLC cell line was 0.118 nM; in the series on DMS153 SCLC cell line, 0.672 nM; in the series with H146 SCLC cell line, 0.163 nM; in the series on H209 SCLC cell line it was 0.057 nM; in the series with H69 SCLC cell line it was 0.018 nM; in the series on H187 SCLC cell line (Homo sapiens, NCI-H187, TP53 c.722C > G, concurrent hemizygous deletion, read-out: IC50 (nM), cell line sensitivity to volasertib) it was 0.004 nM. The IC50 in the series with DMS114 SCLC cell line is 0.092 nM; in series [4] (read-out: mean IC50 concentration, less sensitive SCLC cell lines) it was 0.25 nM; in series [4] (read-out: mean IC50 concentration, more sensitive SCLC cell lines), 0.03 nM. Besides, the Surviving viable cells result in the series with H187 SCLC cell line (BI6727 concentration of 0.01 nM and higher) was “no surviving viable cells”. In addition, the “Tumor growth inhibition relative to control” value in series [3] is “significant tumor growth inhibition”. Moreover, the “Sensitivity to PLK1 inhibitor after shRNA knockdown of TP53” value (“Sensitivity to PLK1 inhibitor” below) with H292 NSCLC cell line and with A549 NSCLC cell line was “sensitized” throughout. Moreover, the “IC50 concentration / activity against SCLC cell lines (in words)” value in series [4] was “picomolar IC50 concentration; also recorded: low nanomolar to picomolar activity”. In addition, the “In vitro activity versus a priori threshold (submicromolar in vitro cytotoxicity)” value in [4] is given as “met the a priori threshold of activity”.
Consider `COc1cc(OC)c(/C=C/S(=O)(=O)Cc2ccc(OC)c(NCC(=O)O)c2)c(OC)c1` [rigosertib], for which, in [1], the “Tumor growth inhibition compared to vehicle” value is “significant tumor growth inhibition comparable to cisplatin” and the “Tumor weight compared to vehicle” value is “reduced tumor weight”. Further, the “Sensitivity to PLK1 inhibitor” value in the series on H292 NSCLC cell line is on record as “sensitized”. For the same compound, the “Sensitivity to PLK1 inhibitor” value with A549 NSCLC cell line is given as “sensitized”. In [4], the “IC50 concentration / activity against SCLC cell lines (in words)” value was “picomolar IC50 concentration; also recorded: low nanomolar to picomolar activity” and the “In vitro activity versus a priori threshold (submicromolar in vitro cytotoxicity)” value is “met the a priori threshold of activity”.
